Experiments:
[1] = test system: 265 bp EcoRI-PvuII restriction fragment from plasmid pBS; experiment: Quantitative DNase I footprinting; format: binding; conditions: for footprint in the 90–100 base region (GC-rich): 265 mer pBS fragment, DNase I; for binding to sites containing GC base pairs, such as ATGA, ACGA, and ATGT: several restriction fragments
Description: In order to characterize the DNA recognition properties of a series of analogs of furamidine (shown in FIG. 1), quantitative DNAaseI footprinting studies were conducted using of a number of derivatives with several different DNA sequences. Plasmid DNA restriction fragments were prepared and DNaseI footprinting experiments were conducted as described in C. Bailly, et al., Biochemistry 35, 1150 (1996) and C. Bailly et al., Anti Cancer Drug Design (in press, 1999).
FIG. 2. illustrates the results of a quantitative DNase I footprinting titration experiment with the compound DB293 on a 265 bp DNA fragment as described herein. The EcoRI-PvuII restriction fragment from plasmid pBS was 3′-end labeled at the EcoRI site with [α-^32P]dATP in the presence of AMV reverse transcriptase. […] Drug concentrations are (lanes 1–11) 0, 0.3, 0.6, 0.9, 1.2, 1.5, 1.8, 2.1, 2.4, 2.7, 3.0 μM for DB 293 and (lanes 12–15) 0, 1, 2 and 5 μM for DB270. Tracks labeled ‘G’ represent dimethylsulphate-piperidine markers specific for guanines. The track labeled DNA contained no drug and no enzyme. Numbers at the right side of the gel refer to the numbering scheme of the fragment. The rectangles on the left side refer to the positions of (open box) an AT-rich and (filled box) a GC-rich binding site for DB293. FIG. 2B is a graphical illustration of footprinting plots for the binding of DB293 to (open circles) the AT site 5′-AATTAA and (filled squares) the GC-rich site 5′-ACCATG. The relative band intensity R corresponds to the ratio Ic/Io where Ic is the intensity of the band at the ligand concentration c and Io is the intensity of the same band in the absence of DB293. The differential cleavage plots shown in FIG. 2C compare the susceptibility of the DNA to cutting by DNase I in the presence of (filled circles) 5 μM DB270 or (open squares) 1.5 μM DB293. Deviation of points towards the lettered sequence (negative values) corresponds to a ligand-protected site and deviation away (positive values) represents enhanced cleavage. The vertical scale is in units of ln(fa)–l(fc), where fa is the fractional cleavage at any bond in the presence of the drug and fc is the fractional cleavage of the same bond in the control. […] The rectangles below the sequence show the positions of (open box) the AT binding site and (filled box) the GC-rich site.

hairpin duplex oligo2-1 = experiment: Thermal melting (Tm) of hairpin oligo2-1; format: binding; conditions: 1:1 and 2:1 ratios, single transitions
oligo2-1 hairpin duplex = test system: oligo2-1 hairpin duplex
Description: (§1) To pursue the comparative quantitative analysis of these compounds with DNA in more detail by using surface plasmon resonance, 5′-biotin labeled analogs of oligo2-1 and 2-2 were immobilized on a BIAcore four-channel streptavidine-coated sensor chip as follows: Immobilization of DNA and surface plasmon resonance (SPR) binding studies: 5′-biotin labeled hairpins were purchased with HPLC purification (Midland Co). […] Steady state analysis was performed with multiple injections f different concentrations of each compound over the SA surface at a flow rate of 20 μl/min, at 25° C.
(§2) Oligo1 was immobilized as a control sequence and one flow cell was left as an unmodified reference. […] The free compound is fixed by the concentration in the flow solution.

[2] = test system: hairpin duplex oligo2 (93–104 base sequence region of the 265 mer pBS restriction fragment); experiment: Thermal melting (Tm) of hairpin oligo2; format: binding; conditions: oligo2 on titration with compound; 0.01 M MES, 0.001M EDTA
Description: In order to investigate the complexes of these compounds in more detail with GC rich sequences, a hairpin duplex model containing the 93–104 base sequence region from the 265 mer pBS restriction fragment was synthesized and is illustrated as oligo2 in FIG. 1. Oligo1 (also shown in FIG. 1) with the AATT sequence that has been used in the analysis of a large number of minor-groove agents provides a reference.
Thermal melting experiments were conducted with a Cary 4 spectrophotometer interfaced to a microcomputer. A thermistor fixed into a reference cuvette was used to monitor the temperature. The oligomers were added to 1 mL of buffer (0.01 M MES and 0.001M EDTA) in 1 cm path length reduced volume quartz cells, and the concentration was determined by measuring the absorbance at 260 nm. Experiments were generally conducted at a concentration of 2×10^−6 M for hairpin oligo2, and 3×10^−6 M for hairpin oligo2-1. Tm experiments for the complexes were conducted as a function of ratio.

oligo2-2 hairpin duplex = conditions: SPR, two site model
Description: as §1, §2

binding to oligo2-1 relative to binding to oligo1 (oligo2-1 hairpin duplex; SPR)	SMILES	footprint in the 90–100 base region (GC-rich) [1]	binding to sites containing GC base pairs, such as ATGA, ACGA, and ATGT [1]	melting temperatures of complexes with oligo2-1 (hairpin duplex oligo2-1)	C50 (drug concentration required for half-maximal footprinting) at the ATGA site versus the neighboring ATTA site ([1]; ATGA site compared with ATTA site)	increase in Tm [2]	K2 relative to K1 (times larger) (oligo2-1 hairpin duplex; also relative to binding of DB270)	macroscopic binding constant K1 (initial binding) (oligo2-1 hairpin duplex; oligo2-1, two site model)	macroscopic binding constant K2 (second site after the first site is filled) (oligo2-1 hairpin duplex; oligo2-1, two site model)	binding to oligo2-2 compared with oligo2-1 (oligo2-2 hairpin duplex)
at least a factor of ten weaker	N=C(N)c1ccc2nc(-c3ccc(-c4nc5ccc(C(=N)N)cc5[nH]4)o3)[nH]c2c1 [DB270, reference compound]	negligible footprints	not and do not bind strongly or footprint	below the DB293 value						
	N=C(N)c1ccc(-c2ccc(-c3nc4ccc(C(=N)N)cc4[nH]3)o2)cc1 [DB293]	very strong footprint	strongly binds		significantly lower	≤ 30 °C	over 25 times	2.8×10^6	7.3×10^7	Very similar results

From US7160914B2, “Compounds that exhibit specific molecular recognition of mixed nucleic acid sequences and bind in the DNA minor groove as a dimer” (The University of North Carolina at Chapel Hill, priority 1999, dated 2007)
